Experimental data taken from patent publication US10919889B2, “Chiral heterocyclic compound with hedgehog pathway antagonist activity, method and use thereof” (SUZHOU KINTOR PHARMACEUTICALS, INC., priority 2016, dated 2021).

Target: T1, WT-Smo (Homo sapiens, UniProt Q99835)
T1 construct: HA; expressed in transfected cells
Test: Bodipy-Cyclopamine binding assay
Details: used in the Cheng-Prusoff equation
Protocol: Bodipy-Cyclopamine binding assay is a fluorescence based assay used to analysis the binding of Smo agonists. Hek293-SMO stable clones were established by puromycin (1 ug/ml, Invitrogen) selection after transfection with SMO-HA-pLVX plasmid Hek293-SMO cells were maintained in complete culture medium (DMEM with 4 mM L-Gln, 1.5 g/L sodium bicarbonate and 4.5 g/L glucose supplemented with 100 ug/ml hygromycin and 10% FBS). The expression of SMO was validated with western blot and cell immunofluorescence. Bodipy-Cyclopamine was purchased from Toronto Research Chemicals and dissolved in methanol.
Hek293-SMO cells were plated in 96-well-plate (3340, Corning), the final cell concentration is 15,000 cells/well in 100 ul 1% serum-containing DMEM. The plates were incubated in 37 degree for additional 48 hours.
Hek293-SMO plate were washed with PBS and fixed with 4% paraformaldehyde (PFA)/PBS for 20 min at room temperature. After removing the PFA buffer, the cells were incubated with DAPI/PBS (5 ug/mL) for 10 min and followed by twice wash with PBS. […] The fluorescence images were automatically captured and analyzed by a high content fluorescence imaging system (Arrayscan VTI, Thermo). […] IC50 values were calculated with GraphPad Prism software using the sigmoidal dose-response function. The Ki was calculated following the Cheng-Prusoff equation, as Ki=IC50/[1+[bodipy-cyclopamine]/Kd)].

T1 sequence (Q99835 28-787): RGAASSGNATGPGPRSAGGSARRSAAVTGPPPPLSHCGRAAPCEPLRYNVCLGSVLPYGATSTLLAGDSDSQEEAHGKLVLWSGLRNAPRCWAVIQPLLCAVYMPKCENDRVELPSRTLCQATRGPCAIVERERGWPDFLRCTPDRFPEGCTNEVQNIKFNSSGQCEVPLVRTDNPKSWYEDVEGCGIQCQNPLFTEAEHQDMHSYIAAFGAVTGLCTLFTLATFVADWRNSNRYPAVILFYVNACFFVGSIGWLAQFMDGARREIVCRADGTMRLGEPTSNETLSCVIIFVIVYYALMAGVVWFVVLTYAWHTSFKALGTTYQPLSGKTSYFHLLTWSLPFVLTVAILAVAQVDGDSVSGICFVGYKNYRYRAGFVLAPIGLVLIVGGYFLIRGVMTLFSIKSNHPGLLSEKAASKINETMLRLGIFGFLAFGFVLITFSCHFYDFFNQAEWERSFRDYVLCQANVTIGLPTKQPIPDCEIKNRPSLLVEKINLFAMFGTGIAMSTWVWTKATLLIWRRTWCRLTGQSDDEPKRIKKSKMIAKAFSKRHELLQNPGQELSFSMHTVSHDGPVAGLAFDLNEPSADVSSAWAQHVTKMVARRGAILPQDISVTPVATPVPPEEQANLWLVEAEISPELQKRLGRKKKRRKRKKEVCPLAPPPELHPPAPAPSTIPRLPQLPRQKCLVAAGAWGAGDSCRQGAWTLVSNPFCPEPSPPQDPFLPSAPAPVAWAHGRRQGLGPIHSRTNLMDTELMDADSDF

## CC1=C2CC3C(CC=C4C[C@@H](O)CCC43C)C2CCC12O[C@@H]1CC(C)CN(CCNC(=O)CCCCCNC(=O)CCC3=[N+]4C(=Cc5c(C)cc(C)n5[B-]4(F)F)C=C3)C1C2C (stereo partly shown) [bodipy-cyclopamine]
  Kd: 3.5 ± 0.8 nM
